One may read the Ki as a measure of affinity in units of concentration, obtained from inhibition or displacement.

Each structure is given as a SMILES string.

The target of experiment [1] is T1, human dopamine D2L receptors (long isoform) (Homo sapiens, UniProt P14416).
T1 construct: expressed in transfected cells; host or cells: HEK-293 (membranes)
Description: Dopamine D2L receptor binding, displacement of [125I]-iodospiperone. Conditions: Ki(D2L)/Ki(D3); membranes from HEK-293 cells with human D2L and D3 receptors. The method, then:
(§1) The substance to be tested was dissolved either in methanol/Chremophor® (BASF-AG) or in dimethyl sulfoxide and then diluted with water to the desired concentration.
(§2) Triplicate mixtures were carried out.
The incubation buffer contained 50 mM Tris, 120 mM NaCl, 5 mM KCl, 2 mM CaCl2, 2 mM MgCl2 and 0.1% bovine serum albumin. The buffer was adjusted to pH 7.4 with HCl.
(§3) After incubation at 25° C. for 60 minutes, the mixtures were filtered under vacuum through Whatman GF/B glass fiber filters using a cell harvester. The filters were transferred by a filter transfer system into scintillation vials. After addition of 4 ml of Ultima Gold® (Packard), the samples were shaken for one hour and then the radioactivity was counted in a beta counter (Packard, Tricarb 2000 or 2200CA). The cp values were converted into dpm by means of a standard quench series with the aid of the instrument's own program.
(§4) Evaluation of the inhibition plots took place by iterative nonlinear regression analysis using the Statistical Analysis System (SAS) similar to the “LIGAND” program described by Munson and Rodbard.

Experiment [2] addresses T2, human dopamine D3 receptors (Homo sapiens, UniProt P35462).
T2 construct: expressed in transfected cells; host or cells: HEK-293 (membranes)
In words: Dopamine D3 receptor binding, displacement of [125I]-iodosulpiride. Conditions: membranes from HEK-293 cells stably expressing human D3 receptor; 0.1 nM [125I]-iodosulpiride; 25° C., 60 minutes. On the procedure:
as §1, §2
The incubation buffer contained 50 mM Tris, 120 mM NaCl, 5 mM KCl, 2 mM CaCl2, 2 mM MgCl2 and 0.1% bovine serum albumin, 10 μM quinolone, 0.1% ascorbic acid (prepared fresh each day). The buffer was adjusted to pH 7.4 with HCl.
as §3, §4
On the technique in general: In a radioligand displacement assay an active substance lowers the binding of a labelled ligand.

T2 sequence (P35462 whole entry): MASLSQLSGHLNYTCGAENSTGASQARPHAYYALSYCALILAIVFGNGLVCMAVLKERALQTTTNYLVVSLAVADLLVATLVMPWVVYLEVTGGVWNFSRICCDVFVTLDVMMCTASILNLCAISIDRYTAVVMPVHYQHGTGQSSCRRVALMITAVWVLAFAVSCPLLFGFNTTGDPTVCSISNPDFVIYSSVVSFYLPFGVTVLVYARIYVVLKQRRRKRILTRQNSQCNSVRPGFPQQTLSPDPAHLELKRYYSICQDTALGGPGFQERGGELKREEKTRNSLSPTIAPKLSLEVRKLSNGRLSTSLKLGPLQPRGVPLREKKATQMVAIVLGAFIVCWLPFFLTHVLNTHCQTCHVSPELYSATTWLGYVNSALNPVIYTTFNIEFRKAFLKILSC
T1 sequence (P14416 whole entry, canonical isoform): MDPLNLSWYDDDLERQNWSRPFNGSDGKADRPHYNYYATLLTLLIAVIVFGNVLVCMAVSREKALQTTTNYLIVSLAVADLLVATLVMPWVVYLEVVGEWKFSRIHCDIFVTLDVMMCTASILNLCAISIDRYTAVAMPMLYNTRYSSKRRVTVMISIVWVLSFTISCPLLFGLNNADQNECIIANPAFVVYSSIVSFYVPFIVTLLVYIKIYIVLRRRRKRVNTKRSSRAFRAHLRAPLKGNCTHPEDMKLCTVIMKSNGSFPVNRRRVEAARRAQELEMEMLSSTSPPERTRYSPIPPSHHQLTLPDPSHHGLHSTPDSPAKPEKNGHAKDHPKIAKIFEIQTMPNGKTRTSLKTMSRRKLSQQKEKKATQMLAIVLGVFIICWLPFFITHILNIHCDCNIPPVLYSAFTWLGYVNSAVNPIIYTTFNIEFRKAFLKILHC

For the molecule `CCCc1cc(N2CCN(CCCCn3ccc(C)cc3=O)CC2)nc(C(C)(C)C)n1.Cl` [Example 3, 4-(2-tert-Butyl-6-propylpyrimidin-4-yl)-1-[4-(4-methyl-2-oxopyridin-1(2H)-yl)butyl]piperazin-1-ium chloride], in experiment [1], the “Selectivity vs. D2L” value worked out at 137. Affinity in experiment [2] was put at a Ki of 0.84 nM.

`CCCc1cc(N2CCN(CCCCn3cccc(OC)c3=O)CC2)nc(C(C)(C)C)n1` [Example 5, 1-{4-[4-(2-tert-Butyl-6-propylpyrimidin-4-yl)piperazin-1-yl]butyl}-3-methoxy-1H-pyridin-2-one]: in experiment [1], the “Selectivity vs. D2L” value was 51. The same molecule returned an inhibition constant Ki in experiment [2] of 1.2 nM.

Turning to `COc1cccn(CCCCN2CCN(c3cc(C(F)(F)F)nc(C(C)(C)C)n3)CC2)c1=O` [Example 6, 1-{4-[4-(2-tert-Butyl-6-trifluoromethylpyrimidin-4-yl)piperazin-1-yl]butyl}-3-methoxy-1H-pyridin-2-one], the “Selectivity vs. D2L” value in experiment [1] is given as 74. This molecule also came in with a Ki in experiment [2] of 2.2 nM.

In the case of `CCCc1cc(N2CCN(CCCCn3cccc(C)c3=O)CC2)nc(C(C)(C)C)n1` [Example 7, 1-{4-[4-(2-tert-Butyl-6-propylpyrimidin-4-yl)piperazin-1-yl]butyl}-3-methyl-1H-pyridin-2-one], the “Selectivity vs. D2L” value in experiment [1] is 129. Moreover, the inhibition constant (Ki) in experiment [2] came out at 1.25 nM.

`Cc1cccn(CCCCN2CCN(c3cc(C(F)(F)F)nc(C(C)(C)C)n3)CC2)c1=O` [Example 11, 1-{4-[4-(2-tert-Butyl-6-trifluoromethylpyrimidin-4-yl)piperazin-1-yl]butyl}-3-methyl-1H-pyridin-2-one]: the “Selectivity vs. D2L” value in experiment [1] turned out to be 74. The same molecule yielded a Ki in experiment [2] of 2.31 nM.
